Source: US20040259794A1 (priority 1999, published 2004)

Test system: Hartley guinea pigs
Settings: guinea pig, in vivo

Structure (SMILES) | Duration, time for full recovery
CCCCN1CCCCC1C(=O)Nc1c(C)cccc1C (centres unmarked) [bupivacaine] | ~90 min
CCN(CC)CC(=O)Nc1c(C)cccc1C [lidocaine] | ≈ 30 minutes
